Drawing on patent US20120245137A1 (Zalicus Pharmaceuticals Ltd., priority 2009, published 2012), this text covers IC50 for 23 compounds.

Assay type in all cases: cell-based
Assay [1] addresses human α1G T-type channels (Homo sapiens, UniProt O43497). Briefly: T-type calcium channel block, whole cell patch clamp, α1G. The following applies: HEK cells stably expressing human α1G; mainly non-inactivated protocol; values above 10,000 nM represented as 10000. Summed up: (§1)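 Blockade of T-type current was measured in human α1G- or α1H-expressing HEK 293 cells using whole-cell recording with ~5 MΩ pipettes. Test compounds, dissolved in external solution containing 0.1-0.01% DMSO, were applied close to the cell, and block was examined under both non-inactivating and inactivating voltage protocols.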
For orientation: The patch-clamp technique gives a direct electrical read-out from membranes.

The target of assay [2] is human α1H T-type channels (Homo sapiens, UniProt O95180). Put plainly: T-type calcium channel block, whole cell patch clamp, α1H. The following applies: HEK cells stably expressing human α1H; mainly non-inactivated protocol; values above 10,000 nM represented as 10000. The method in brief:
as §1

Assay [3] concerns the target N-type calcium channel subunits (α1B, α2δ, and β3a) (Homo sapiens, UniProt Q00975). Put plainly: Block of Cav2.2 channel, whole cell voltage clamp, manual and PatchXpress. The following applies: Table 5; table follows Assay Example 3 (whole cell voltage clamp / PatchXpress); assay not given. The method in brief:
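Percent block taken as current amplitude ratio with versus without compound, applied in rising doses; IC50 fitted where one cell received multiple doses. Protocol: 50 ms pulses to +20 mV at 0.067 Hz from […] or −90 mV holding; P/n leak subtraction, no junction-potential correction; manual and PatchXpress recordings.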

Sequence of human α1G T-type channels (O43497 whole entry): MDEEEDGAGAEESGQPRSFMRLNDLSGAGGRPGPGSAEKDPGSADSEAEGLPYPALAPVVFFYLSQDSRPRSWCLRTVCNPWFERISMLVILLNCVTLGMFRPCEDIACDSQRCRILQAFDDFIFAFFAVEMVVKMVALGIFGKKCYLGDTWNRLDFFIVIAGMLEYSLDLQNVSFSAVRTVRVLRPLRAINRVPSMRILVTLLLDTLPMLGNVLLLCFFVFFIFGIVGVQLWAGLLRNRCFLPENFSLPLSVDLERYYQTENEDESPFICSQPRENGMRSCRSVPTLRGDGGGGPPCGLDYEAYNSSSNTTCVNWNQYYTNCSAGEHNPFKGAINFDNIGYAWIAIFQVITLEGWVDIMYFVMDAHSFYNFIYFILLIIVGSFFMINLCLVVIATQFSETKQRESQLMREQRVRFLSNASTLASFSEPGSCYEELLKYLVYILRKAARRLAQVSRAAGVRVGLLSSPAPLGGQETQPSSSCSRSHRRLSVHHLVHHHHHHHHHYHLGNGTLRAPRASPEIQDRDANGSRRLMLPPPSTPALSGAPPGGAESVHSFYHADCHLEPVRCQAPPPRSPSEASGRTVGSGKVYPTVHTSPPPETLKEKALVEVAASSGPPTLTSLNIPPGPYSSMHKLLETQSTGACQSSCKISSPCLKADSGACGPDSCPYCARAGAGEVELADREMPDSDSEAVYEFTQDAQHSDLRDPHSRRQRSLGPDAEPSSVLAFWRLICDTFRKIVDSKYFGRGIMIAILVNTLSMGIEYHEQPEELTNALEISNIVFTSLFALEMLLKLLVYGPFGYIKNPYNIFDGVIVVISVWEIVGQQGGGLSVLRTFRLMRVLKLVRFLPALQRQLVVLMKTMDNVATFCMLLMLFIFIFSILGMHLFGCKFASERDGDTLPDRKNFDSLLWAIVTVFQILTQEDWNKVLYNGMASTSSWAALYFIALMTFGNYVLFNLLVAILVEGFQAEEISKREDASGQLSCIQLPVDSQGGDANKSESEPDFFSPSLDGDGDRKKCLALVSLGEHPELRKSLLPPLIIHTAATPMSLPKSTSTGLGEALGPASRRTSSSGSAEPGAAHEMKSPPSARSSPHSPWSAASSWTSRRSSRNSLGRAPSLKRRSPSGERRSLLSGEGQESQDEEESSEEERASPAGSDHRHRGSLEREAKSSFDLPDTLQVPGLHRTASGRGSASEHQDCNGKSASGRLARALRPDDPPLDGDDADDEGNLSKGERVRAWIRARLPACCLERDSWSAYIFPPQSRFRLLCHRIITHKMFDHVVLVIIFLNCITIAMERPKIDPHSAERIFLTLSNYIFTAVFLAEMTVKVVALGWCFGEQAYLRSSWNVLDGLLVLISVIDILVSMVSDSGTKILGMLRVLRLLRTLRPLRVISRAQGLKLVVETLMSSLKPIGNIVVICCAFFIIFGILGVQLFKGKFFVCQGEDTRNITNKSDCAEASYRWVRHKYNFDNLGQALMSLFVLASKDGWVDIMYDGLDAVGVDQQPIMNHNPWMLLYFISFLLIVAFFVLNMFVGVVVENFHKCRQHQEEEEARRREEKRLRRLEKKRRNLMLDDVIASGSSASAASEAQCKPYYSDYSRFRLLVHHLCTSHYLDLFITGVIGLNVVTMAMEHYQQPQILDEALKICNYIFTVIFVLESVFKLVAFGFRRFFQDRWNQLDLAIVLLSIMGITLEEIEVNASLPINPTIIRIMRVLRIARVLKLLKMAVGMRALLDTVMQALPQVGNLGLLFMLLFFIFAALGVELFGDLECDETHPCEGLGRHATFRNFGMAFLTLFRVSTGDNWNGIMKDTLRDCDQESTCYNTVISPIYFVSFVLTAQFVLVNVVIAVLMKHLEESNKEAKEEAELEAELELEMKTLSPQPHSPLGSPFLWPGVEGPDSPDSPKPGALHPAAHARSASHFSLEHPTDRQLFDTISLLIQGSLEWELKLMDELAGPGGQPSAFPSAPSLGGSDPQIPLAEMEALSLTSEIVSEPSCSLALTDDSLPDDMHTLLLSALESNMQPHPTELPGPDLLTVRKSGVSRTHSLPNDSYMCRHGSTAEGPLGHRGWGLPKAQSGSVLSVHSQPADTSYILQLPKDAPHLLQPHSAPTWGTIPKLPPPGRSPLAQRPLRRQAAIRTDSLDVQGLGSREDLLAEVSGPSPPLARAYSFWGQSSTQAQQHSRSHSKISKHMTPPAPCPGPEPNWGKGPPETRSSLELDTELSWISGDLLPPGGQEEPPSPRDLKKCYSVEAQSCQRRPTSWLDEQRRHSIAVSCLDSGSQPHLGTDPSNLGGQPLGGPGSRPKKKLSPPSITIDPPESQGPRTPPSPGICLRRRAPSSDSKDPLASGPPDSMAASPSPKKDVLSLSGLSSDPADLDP
Sequence of human α1H T-type channels (O95180 whole entry): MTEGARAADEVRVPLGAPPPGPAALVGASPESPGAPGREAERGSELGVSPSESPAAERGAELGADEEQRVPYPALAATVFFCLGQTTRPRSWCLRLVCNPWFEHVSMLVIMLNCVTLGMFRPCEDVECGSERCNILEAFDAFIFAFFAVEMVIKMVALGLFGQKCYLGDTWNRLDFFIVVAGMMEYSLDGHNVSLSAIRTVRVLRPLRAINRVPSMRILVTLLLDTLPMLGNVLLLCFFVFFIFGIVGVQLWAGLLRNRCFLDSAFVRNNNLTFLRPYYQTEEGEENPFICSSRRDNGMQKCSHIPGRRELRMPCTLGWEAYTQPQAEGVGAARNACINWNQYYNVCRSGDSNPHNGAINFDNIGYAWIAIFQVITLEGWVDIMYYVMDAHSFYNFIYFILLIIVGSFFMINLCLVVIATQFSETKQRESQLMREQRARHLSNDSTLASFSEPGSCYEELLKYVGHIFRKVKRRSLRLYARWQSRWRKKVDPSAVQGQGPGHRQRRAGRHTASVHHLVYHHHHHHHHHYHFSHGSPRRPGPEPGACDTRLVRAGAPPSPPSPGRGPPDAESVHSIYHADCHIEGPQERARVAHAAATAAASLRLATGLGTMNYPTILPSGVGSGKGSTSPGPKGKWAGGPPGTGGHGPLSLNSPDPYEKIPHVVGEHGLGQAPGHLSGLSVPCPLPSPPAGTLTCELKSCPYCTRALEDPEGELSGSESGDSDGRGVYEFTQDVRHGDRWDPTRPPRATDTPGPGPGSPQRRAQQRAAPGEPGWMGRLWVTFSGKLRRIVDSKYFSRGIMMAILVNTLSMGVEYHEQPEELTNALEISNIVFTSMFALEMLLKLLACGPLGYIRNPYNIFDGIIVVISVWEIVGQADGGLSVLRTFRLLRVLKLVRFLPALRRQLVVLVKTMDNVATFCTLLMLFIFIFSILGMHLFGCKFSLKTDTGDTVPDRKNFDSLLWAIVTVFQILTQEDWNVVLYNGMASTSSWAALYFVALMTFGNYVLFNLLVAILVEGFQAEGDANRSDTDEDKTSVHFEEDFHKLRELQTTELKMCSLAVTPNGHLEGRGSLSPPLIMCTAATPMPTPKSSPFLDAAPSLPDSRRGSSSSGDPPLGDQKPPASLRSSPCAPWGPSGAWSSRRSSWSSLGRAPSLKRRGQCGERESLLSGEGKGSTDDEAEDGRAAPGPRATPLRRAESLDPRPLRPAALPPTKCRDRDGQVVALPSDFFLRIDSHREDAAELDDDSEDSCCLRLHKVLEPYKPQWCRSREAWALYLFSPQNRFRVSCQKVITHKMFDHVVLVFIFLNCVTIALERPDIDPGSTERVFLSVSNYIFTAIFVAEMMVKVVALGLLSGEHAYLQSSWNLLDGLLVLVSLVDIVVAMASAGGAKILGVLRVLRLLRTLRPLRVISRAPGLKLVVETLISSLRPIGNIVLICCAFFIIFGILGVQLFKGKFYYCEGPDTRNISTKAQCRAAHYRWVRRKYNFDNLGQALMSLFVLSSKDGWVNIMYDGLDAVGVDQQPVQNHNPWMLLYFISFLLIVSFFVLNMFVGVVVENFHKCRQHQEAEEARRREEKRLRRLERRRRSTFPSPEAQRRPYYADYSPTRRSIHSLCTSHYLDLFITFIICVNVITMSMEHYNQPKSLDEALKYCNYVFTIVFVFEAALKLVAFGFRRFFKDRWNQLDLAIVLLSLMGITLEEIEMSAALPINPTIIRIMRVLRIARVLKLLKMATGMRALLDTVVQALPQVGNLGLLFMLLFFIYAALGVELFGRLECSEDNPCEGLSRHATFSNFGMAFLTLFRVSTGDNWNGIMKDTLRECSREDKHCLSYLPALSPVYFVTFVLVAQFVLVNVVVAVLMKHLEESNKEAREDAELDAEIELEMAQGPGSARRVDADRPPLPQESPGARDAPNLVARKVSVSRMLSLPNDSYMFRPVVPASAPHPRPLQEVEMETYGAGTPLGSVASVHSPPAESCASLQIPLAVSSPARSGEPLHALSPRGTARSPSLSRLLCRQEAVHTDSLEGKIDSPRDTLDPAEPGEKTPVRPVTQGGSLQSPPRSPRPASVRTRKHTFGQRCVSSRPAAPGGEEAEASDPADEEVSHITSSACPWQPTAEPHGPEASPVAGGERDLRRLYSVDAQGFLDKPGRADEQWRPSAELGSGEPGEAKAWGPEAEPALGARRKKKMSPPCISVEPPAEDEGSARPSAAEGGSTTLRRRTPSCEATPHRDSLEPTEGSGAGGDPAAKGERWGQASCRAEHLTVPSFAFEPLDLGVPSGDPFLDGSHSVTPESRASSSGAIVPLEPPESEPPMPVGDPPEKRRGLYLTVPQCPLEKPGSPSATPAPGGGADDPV

As usually defined, the IC50 is the point on the concentration scale where inhibition reaches its midpoint. As to `CC(C)S(=O)(=O)c1cc(C(F)(F)F)cnc1C(=O)N[C@H]1C[C@H](S(=O)(=O)c2cccc(C(F)(F)F)c2)C1` [Compound 432, 3-(isopropylsulfonyl)-5-(trifluoromethyl)-N-((1R,3R)-3-(3-(trifluoromethyl)phenylsulfonyl)cyclobutyl) picolinamide], the IC50 turned out to be 1290 nM in assay [1], 330 nM in assay [2] and 810 nM in assay [3].
For `CC(C)(C)NC(=O)CN[C@H]1C[C@H](CS(=O)(=O)c2cccc(C(F)(F)F)c2)C1` [Compound 352, N-tert-butyl-2-((1R,3R)-3-((3-(trifluoromethyl)phenylsulfonyl)methyl)cyclobutylamino)acetamide] the same measures were 640 nM, 230 nM and 3760 nM.
Taken in the same sequence, the figures for `COc1cc(F)cc(C(=O)N[C@H]2CC[C@@H](CS(=O)(=O)c3cccc(C(F)(F)F)c3)CC2)c1` [Compound 136, 3-fluoro-5-methoxy-N-((1S,4S)-4-((3-(trifluoromethyl)phenylsulfonyl)methyl)cyclohexyl)benzamide] were 540 nM, 550 nM and 440 nM.
`O=C(NC1CCC(S(=O)(=O)c2cccc(C(F)(F)F)c2)CC1)c1ccc(C(F)(F)F)cn1` (stereo not drawn) [Compound 10, 5-(trifluoromethyl)-N-(4-(3-(trifluoromethyl)phenylsulfonyl)cyclohexyl)picolinamide]: the IC50 in assay [1] is 4200 nM; in assay [2], 3820 nM; in assay [3] it was 1460 nM.
For `COc1cc(F)cc(C(=O)N[C@H]2C[C@H](CS(=O)(=O)c3cccc(C(F)(F)F)c3)C2)c1` [Compound 349, 3-fluoro-5-methoxy-N-((1R,3R)-3-((3-(trifluoromethyl)phenylsulfonyl)methyl)cyclobutyl)benzamide] the same measures were over 10000 nM, over 10000 nM and 890 nM.
Consider `O=C(N[C@H]1CC[C@@](F)(S(=O)(=O)c2cccc(C(F)(F)F)c2)CC1)[C@@H]1C[C@H](c2ccccc2)CN1` [Compound 286, (2S,4R)-N-((1S,4R)-4-fluoro-4-(3-(trifluoromethyl)phenylsulfonyl)cyclohexyl)-4-phenylpyrrolidine-2-carboxamide], for which the results for the IC50 in assay [1], in assay [2] and in assay [3] were 3190 nM, 1540 nM and 390 nM, respectively.
Taken in the same sequence, the figures for `CC([C@H]1C[C@H](NC(=O)c2ccc(F)c(Cl)c2)C1)S(=O)(=O)c1cccc(C(F)(F)F)c1` (stereo partly drawn) [Compound 434, 3-chloro-4-fluoro-N-((1R,3R)-3-( (R)-1-(3-(trifluoromethyl)phenylsulfonyl)ethyl)cyclobutyl)benzamide] were 1130 nM, 680 nM and 210 nM.
For the compound `O=C(CN[C@H]1CC[C@H](S(=O)(=O)c2cccc(C(F)(F)F)c2)CC1)NC1CCCCC1` [Compound 76, N-cyclohexyl-2-((1R,4R)-4-(3-(trifluoromethyl)phenylsulfonyl)cyclohexylamino)acetamide], the IC50 was found to be 1030 nM in assay [1], 510 nM in assay [2] and 590 nM in assay [3].
For `CC1(S(=O)(=O)c2cccc(C(F)(F)F)c2)CCN(C(=O)CNC2CCCCC2)CC1` [Compound 18, 2-(cyclohexylamino)-l-(4-methyl-4-(3-(trifluoromethyl)phenylsulfonyl)piperidin-l-yl)ethanone] the same measures were 3060 nM, 2720 nM and 390 nM.
In the case of `Cn1nc(C(F)(F)F)cc1C(=O)NC1(C)CCC(S(=O)(=O)c2cccc(C(F)(F)F)c2)CC1` (stereo not drawn) [Compound 307, 1-methyl-N-(1-methyl-4-(3-(trifluoromethyl)phenylsulfonyl)cyclohexyl)-3-(tritluoromethyl)-1H-pyrazole-5-carboxamide], the IC50 is 2410 nM in assay [1], 1540 nM in assay [2] and 3120 nM in assay [3].
Taken in the same sequence, the figures for `O=C(NC[C@H]1C[C@@H](S(=O)(=O)c2cccc(C(F)(F)F)c2)C1)c1ccc(F)c(C(F)(F)F)c1` [Compound 377, 4-fluoro-3-(trifluoromethyl)-N-(((1S,3S)-3-(3-(trifluoromethyl)phenylsulfonyl)cyclobutyl)methyl)benzamide] were 2340 nM, 1040 nM and 460 nM.
Taken in the same sequence, the figures for `CC1(S(=O)(=O)c2cccc(C(F)(F)F)c2)CCC(NC(=O)c2cnc(C(F)(F)F)nc2)CC1` (stereo not drawn) [Compound 2, N-(4-methyl-4-(3-(trifluoromethyl)phenylsulfonyl)cyclohexyl)-2-(trifluoromethyl) pyrimidine-5-carboxamide] were 1380 nM, 1170 nM and 950 nM.
Regarding `CC(C)S(=O)(=O)c1cc(C(F)(F)F)cnc1C(=O)N[C@H]1CC[C@@H](S(=O)(=O)c2cccc(C(F)(F)F)c2)CC1` [Compound 339, 3-(isopropylsulfonyl)-5-(trifluoromethyl)-N-((1S,4S)-4-(3-(trifluoromethyl)phenylsulfonyl)cyclohexyl) picolinamide], the IC50 turned out to be 5270 nM in assay [1], 3330 nM in assay [2] and 220 nM in assay [3].
Taken in the same sequence, the figures for `O=C(N[C@H]1CC[C@@H](CS(=O)(=O)c2cccc(C(F)(F)F)c2)CC1)c1ccc(C(F)(F)F)cn1` [Compound 143, 5-(trifluoromethyl)-N-((1S,4S)-4-((3-(trifluoromethyl)phenylsulfonyl)methyl)cyclohexyl)picolinamide] were over 10000 nM, 6750 nM and 950 nM.
Taken in the same sequence, the figures for `CC1(CNC(=O)c2ccc(F)c(C(F)(F)F)c2)CCC(S(=O)(=O)c2cccc(C(F)(F)F)c2)CC1` (stereo not drawn) [Compound 135, 4-fluoro-N-((1-methyl-4-(3-(trifluoromethyl)phenylsulfonyl)cyclohexyl)methyl)-3-(trifluoromethyl)benzamide] were 780 nM, 760 nM and 100 nM.
As to `O=C(N[C@H]1CC[C@@H](CS(=O)(=O)c2cccc(C(F)(F)F)c2)CC1)c1ccc(F)c(Cl)c1` [Compound 142, 3-chloro-4-fluoro-N-((1S,4S)-4-((3-(trifluoromethyl)phenylsulfonyl)methyl)cyclohexyl)benzamide], the values for the IC50 in assay [1], in assay [2] and in assay [3] were 8230 nM, 5880 nM and 380 nM, respectively.
For the compound `O=C(Nc1ccc(C(F)(F)F)cn1)[C@H]1C[C@H](S(=O)(=O)c2cccc(C(F)(F)F)c2)C1` [Compound 415, (1R,3R)-3-(3-(trifluoromethyl)phenylsulfonyl)-N-(5-(trifluoromethyl)pyridin-2-yl)cyclobutanecarboxamide], the values for the IC50 in assay [1], in assay [2] and in assay [3] were over 10000 nM, over 10000 nM and 1760 nM, respectively.
In the case of `O=S(=O)(CCC(F)(F)F)N[C@H]1CC[C@@](F)(S(=O)(=O)c2cccc(C(F)(F)F)c2)CC1` [Compound 295, 3,3,3-trifluoro-N-((1S,4S)-4-fluoro-4-(3-(trifluoromethyl)phenylsulfonyl)cyclohexyl) propane-1-sulfonamide], the 50% inhibitory concentration (IC50) was determined as 630 nM in assay [1], 320 nM in assay [2] and 790 nM in assay [3].
For `O=C(NC1CCC(S(=O)(=O)c2cccc(C(F)(F)F)c2)CC1)c1ccc(F)c(C(F)(F)F)c1` (stereo not drawn) [Compound 11, 4-fluoro-3-(trifluoromethyl)-N-(4-(3-(trifluoromethyl)phenylsulfonyl)cyclohexyl)benzamide] the same measures were over 10000 nM, over 10000 nM and 150 nM.
For `CC1(S(=O)(=O)c2cccc(C(F)(F)F)c2)CCC(NC(=O)c2ccn(CC(F)(F)F)n2)CC1` (stereo not drawn) [Compound 7, N-(4-methyl-4-(3-(trifluoromethyl)phenylsulfonyl)cyclohexyl)-l-(2,2,2-trifluoroethyl)-1H-pyrazole-3-carboxamide] the same measures were over 10000 nM, over 10000 nM and 1580 nM.
Turning to `CN(C(=O)c1cn2cc(C(F)(F)F)ccc2n1)[C@H]1CC[C@@](F)(S(=O)(=O)c2cc(F)cc(C(F)(F)F)c2)CC1` [Compound 338, N-((1S,4S)-4-fluoro-4-(3-fluoro-5-(trifluoromethyl)phenylsulfonyl)cyclohexyl)-N-methyl-6-(trifluoromethyl) imidazo[1,2-a]pyridine-2-carboxamide], the IC50 in assay [1] is over 10000 nM; in assay [2], 6790 nM; in assay [3], 770 nM.
For `O=S(=O)(NC[C@H]1C[C@H](S(=O)(=O)c2cccc(C(F)(F)F)c2)C1)c1ccc(C(F)(F)F)cc1` [Compound 424, 4-(trifluoromethyl)-N-(((1R,3R)-3-(3-(trifluoromethyl)phenylsulfonyl)cyclobutyl)methyl)benzenesulfonamide] the same measures were 2290 nM, 1040 nM and 1460 nM.
Taken in the same sequence, the figures for `Cc1nc(C(F)(F)F)ccc1NC(=O)[C@H]1C[C@@H](S(=O)(=O)c2cccc(C(F)(F)F)c2)C1` [Compound 418, (1S,3S)-N-(2-methyl-6-(trifluoromethyl)pyridin-3-yl)-3-(3-(trifluoromethyl)phenylsulfonyl)cyclobutane carboxamide] were over 10000 nM, 2870 nM and 3500 nM.
